Measurements from paper PMC9500072, “Topical application of an irreversible small molecule inhibitor of lysyl oxidases ameliorates skin scarring and fibrosis” (Nature Communications, 2022).
pIC50: −log10 of the molar value.

What was measured:
[1] = target: T1, Bovine (aorta) LOX (Bos taurus, UniProt P33072); assay: Amplex Red oxidation assay, LOX inhibition; format: biochemical
T1 construct: Bovine (aorta) LOX used for analog screening due to ready availability; from tissue; host or cells: bovine aorta
T1 sequence (P33072 170-418): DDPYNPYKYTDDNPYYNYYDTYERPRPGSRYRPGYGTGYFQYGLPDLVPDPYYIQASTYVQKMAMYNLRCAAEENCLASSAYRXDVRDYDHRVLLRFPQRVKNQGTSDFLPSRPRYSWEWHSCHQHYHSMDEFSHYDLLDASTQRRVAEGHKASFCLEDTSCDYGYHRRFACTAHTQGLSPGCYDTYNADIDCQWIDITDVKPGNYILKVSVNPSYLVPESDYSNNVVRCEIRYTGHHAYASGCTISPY
Procedure: (§1) The measurement of the enzymatic activity of all lysyl oxidase family members was based on the detection of hydrogen peroxide with an Amplex-Red oxidation assay, as previously described; miniaturized in 384 well formats, with the appropriate combination of substrate and assay buffer for each individual enzyme. After a 30 min pre-incubation of the enzyme at 37 °C with the test compound (or with different incubation times for the time-dependency assay), one volume of reaction mixture containing 120 μM Amplex Red (AR) (Life Technologies), 1.5 U/mL horseradish peroxidase (HRP) (Sigma-Aldrich) and the specific substrate was added to each sample. The relative fluorescence units (RFU) were then measured every 2.5 min for 30 min at 37 °C, excitation 565 nm and emission 590, on a BMG Clariostar Microplate Reader. All the substrates were used at concentrations corresponding to their Km towards the corresponding enzyme, or with a range of different concentrations for the substrate competition experiments.
Lysyl oxidases assay buffer contained 1.2 M urea, 50 mM sodium borate buffer, pH 8.2 and 100 µM β-aminoproprionitrile (BAPN, Sigma-Aldrich) was used for low control.

[2] = target: Bradykinin B1 (Homo sapiens, UniProt P46663); assay: Eurofins panel 212510; format: binding
[3] = target: Bradykinin B2 (Homo sapiens, UniProt P30411); assay: Eurofins panel 212620; format: binding
[4] = test system: keratinocytes; assay: RNASeq transcriptome analysis, keratinocytes; format: cell-based, human; details: 24 hrs of treatment
[5] = test system: lysyl oxidases; assay: Time-dependency of inhibition (pre-incubation times); format: biochemical; parameters: Fig. 2B activity: scale not given here
Description: PXS-4787 competes with a model substrate (putrescine) for the LOX binding site (Fig. 2d). The allylamine of PXS-4787 interacts with the co-factor of the enzyme and elicits mechanism-based inhibition (Fig. 2e). Through careful optimization, and in contrast to BAPN, PXS-4787 selectivity targets lysyl oxidases and is neither an inhibitor of, nor a substrate for, related oxidases (Fig. 2f, g and Supplementary Table S1). Furthermore, PXS-4787 was clean when profiled in a broad panel of macromolecular targets using enzyme and radioligand binding assays (LeadProfilingScreen, Eurofins CEREP Panlabs, 68 assays, test concentration 10 µM; Supplementary Data S1).
Data are expressed as mean ± SEM. Subsequent statistical analysis was performed with unpaired two-sided Student’s t tests. *p < 0.05, **p < 0.01, ***p < 0.001and ****p < 0.0001. Source data are provided as a Source Data file.
as §1

[6] = target: Cholinesterase, Acetyl, ACES (Homo sapiens, UniProt P22303); assay: Eurofins panel 104010; format: biochemical
[7] = target: Phosphodiesterase PDE4D2 (Homo sapiens, UniProt Q08499); assay: Eurofins panel 154420; format: biochemical
[8] = LogD; format: physicochemical
[9] = test system: deep-dermal contact burn scar; assay: Porcine burn injury model with tensile strength testing; format: in vivo, pig

Bradykinin B2, sequence (P30411 whole entry): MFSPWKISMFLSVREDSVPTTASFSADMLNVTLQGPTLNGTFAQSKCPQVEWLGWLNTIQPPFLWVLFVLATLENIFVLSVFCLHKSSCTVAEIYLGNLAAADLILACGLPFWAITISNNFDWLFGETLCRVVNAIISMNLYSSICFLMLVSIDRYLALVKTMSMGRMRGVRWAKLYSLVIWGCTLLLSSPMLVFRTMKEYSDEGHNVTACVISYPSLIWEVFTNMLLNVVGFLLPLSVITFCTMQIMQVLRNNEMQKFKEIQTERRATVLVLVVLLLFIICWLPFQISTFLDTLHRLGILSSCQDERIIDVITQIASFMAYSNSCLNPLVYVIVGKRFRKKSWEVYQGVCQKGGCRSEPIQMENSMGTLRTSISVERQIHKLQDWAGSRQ
Phosphodiesterase PDE4D2, sequence (Q08499 303-809 limits assumed): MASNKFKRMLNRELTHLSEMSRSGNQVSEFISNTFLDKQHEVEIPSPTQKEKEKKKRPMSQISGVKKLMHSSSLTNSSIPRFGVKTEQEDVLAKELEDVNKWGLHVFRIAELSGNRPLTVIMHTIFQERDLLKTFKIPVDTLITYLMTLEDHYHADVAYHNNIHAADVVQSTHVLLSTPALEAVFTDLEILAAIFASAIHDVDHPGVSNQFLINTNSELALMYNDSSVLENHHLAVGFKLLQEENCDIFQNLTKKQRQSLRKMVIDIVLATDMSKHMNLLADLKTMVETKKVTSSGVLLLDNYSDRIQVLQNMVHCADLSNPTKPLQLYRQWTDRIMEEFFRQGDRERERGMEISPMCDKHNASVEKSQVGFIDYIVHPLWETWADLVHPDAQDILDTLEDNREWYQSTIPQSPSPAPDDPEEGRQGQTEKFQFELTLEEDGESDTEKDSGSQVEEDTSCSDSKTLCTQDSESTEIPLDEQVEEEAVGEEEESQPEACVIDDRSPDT
Cholinesterase, Acetyl, ACES, sequence (P22303 32-614): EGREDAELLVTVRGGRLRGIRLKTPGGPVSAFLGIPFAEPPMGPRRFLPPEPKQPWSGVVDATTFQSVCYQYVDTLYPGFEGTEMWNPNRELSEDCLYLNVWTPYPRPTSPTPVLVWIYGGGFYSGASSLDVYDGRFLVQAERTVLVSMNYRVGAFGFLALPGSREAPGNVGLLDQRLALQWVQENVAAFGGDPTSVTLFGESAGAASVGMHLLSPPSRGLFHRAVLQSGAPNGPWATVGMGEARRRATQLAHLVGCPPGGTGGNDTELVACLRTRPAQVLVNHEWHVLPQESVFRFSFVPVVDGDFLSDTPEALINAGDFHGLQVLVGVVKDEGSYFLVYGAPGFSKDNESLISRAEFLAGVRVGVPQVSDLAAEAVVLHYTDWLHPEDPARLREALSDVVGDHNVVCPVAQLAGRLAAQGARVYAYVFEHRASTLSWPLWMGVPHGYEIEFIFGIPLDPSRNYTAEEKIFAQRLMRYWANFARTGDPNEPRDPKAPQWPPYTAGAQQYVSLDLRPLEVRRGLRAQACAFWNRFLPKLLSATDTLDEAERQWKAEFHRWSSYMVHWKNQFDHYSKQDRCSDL
Bradykinin B1, sequence (P46663 whole entry): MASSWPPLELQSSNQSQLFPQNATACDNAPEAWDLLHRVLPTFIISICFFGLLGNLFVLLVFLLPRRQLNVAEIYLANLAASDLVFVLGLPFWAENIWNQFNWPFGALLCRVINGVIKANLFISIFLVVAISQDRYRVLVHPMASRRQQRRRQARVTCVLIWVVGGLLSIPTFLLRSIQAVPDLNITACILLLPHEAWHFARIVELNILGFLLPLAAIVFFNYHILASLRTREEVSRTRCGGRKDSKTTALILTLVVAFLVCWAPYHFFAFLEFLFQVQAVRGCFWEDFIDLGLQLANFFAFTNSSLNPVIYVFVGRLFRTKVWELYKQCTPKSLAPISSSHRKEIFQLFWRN

## NC/C=C(\F)CS(=O)(=O)c1ccccc1 [PXS-4787]
[1]; 30 min pre-incubation
  pIC50: 5.70
[1]; log conc -4.5229, read-out: Fig 2A inhibition (mean)
  inhibition at 30 µM: 99.2%
[1]; log conc -5, read-out: Fig 2A inhibition (mean)
  inhibition at 10 µM: 92.3%
[1]; log conc -5.4771, read-out: Fig 2A inhibition (mean)
  inhibition at 3.333 µM: 65.8%
[1]; log conc -5.9542, read-out: Fig 2A inhibition (mean)
  inhibition at 1.111 µM: 35%
[1]; log conc -6.4313, read-out: Fig 2A inhibition (mean)
  inhibition at 0.3704 µM: 14.2%
[1]; log conc -6.9083, read-out: Fig 2A inhibition (mean)
  inhibition at 0.1235 µM: 4.31%
[1]; log conc -7.3851, read-out: Fig 2A inhibition (mean)
  inhibition at 0.0412 µM: 1.21%
[1]; log conc -7.8633, read-out: Fig 2A inhibition (mean)
  inhibition at 0.0137 µM: -0.629%
[1]; log conc -8.3372, read-out: Fig 2A inhibition (mean)
  inhibition at 0.0046 µM: -1.3%
[1]; log conc -8.8239, read-out: Fig 2A inhibition (mean)
  inhibition at […]: -1.09%
[1]; log conc -9.301, read-out: Fig 2A inhibition (mean)
  inhibition at 0.0005 µM: -1.47%
[2]
  inhibition at 10 µM: 6%
[3]
  inhibition at 10 µM: 5%
[4]
  Log2 fold change LOC101927136: 3.918
  Log2 fold change TMOD1: 4.799
[5]
  potency versus pre-incubation time: increased potency upon longer pre-incubation times
[5]; 1.69333e-10, pre-incubation 0 min
  Fig. 2B activity: 106.286
[5]; 1.69333e-10, pre-incubation 15 min
  Fig. 2B activity: 104.086
[5]; 1.69333e-10, pre-incubation 30 min
  Fig. 2B activity: 108.652
[5]; 1.69333e-10, pre-incubation 1 h
  Fig. 2B activity: 105.245
[5]; 1.69333e-10, pre-incubation 2 h
  Fig. 2B activity: 105.759
[5]; 1.69333e-10, pre-incubation 4 h
  Fig. 2B activity: 111.637
[5]; 5.08e-10, pre-incubation 0 min
  Fig. 2B activity: 102.267
[5]; 5.08e-10, pre-incubation 15 min
  Fig. 2B activity: 101.228
[5]; 5.08e-10, pre-incubation 30 min
  Fig. 2B activity: 106.873
[5]; 5.08e-10, pre-incubation 1 h
  Fig. 2B activity: 98.3282
[5]; 5.08e-10, pre-incubation 2 h
  Fig. 2B activity: 107.568
[5]; 5.08e-10, pre-incubation 4 h
  Fig. 2B activity: 110.707
[5]; 1.52e-9, pre-incubation 0 min
  Fig. 2B activity: 101.124
[5]; 1.52e-9, pre-incubation 15 min
  Fig. 2B activity: 102.218
[5]; 1.52e-9, pre-incubation 30 min
  Fig. 2B activity: 107.03
[5]; 1.52e-9, pre-incubation 1 h
  Fig. 2B activity: 103.614
[5]; 1.52e-9, pre-incubation 2 h
  Fig. 2B activity: 102.685
[5]; 1.52e-9, pre-incubation 4 h
  Fig. 2B activity: 110.751
[5]; 4.57e-9, pre-incubation 0 min
  Fig. 2B activity: 99.5583
[5]; 4.57e-9, pre-incubation 15 min
  Fig. 2B activity: 100.144
[5]; 4.57e-9, pre-incubation 30 min
  Fig. 2B activity: 103.756
[5]; 4.57e-9, pre-incubation 1 h
  Fig. 2B activity: 101.013
[5]; 4.57e-9, pre-incubation 2 h
  Fig. 2B activity: 107.904
[5]; 4.57e-9, pre-incubation 4 h
  Fig. 2B activity: 105.302
[5]; 1.37e-8, pre-incubation 0 min
  Fig. 2B activity: 96.8423
[5]; 1.37e-8, pre-incubation 15 min
  Fig. 2B activity: 98.2429
[5]; 1.37e-8, pre-incubation 30 min
  Fig. 2B activity: 101.141
[5]; 1.37e-8, pre-incubation 1 h
  Fig. 2B activity: 101.758
[5]; 1.37e-8, pre-incubation 2 h
  Fig. 2B activity: 104.569
[5]; 1.37e-8, pre-incubation 4 h
  Fig. 2B activity: 105.34
[5]; 4.12e-8, pre-incubation 0 min
  Fig. 2B activity: 98.5025
[5]; 4.12e-8, pre-incubation 15 min
  Fig. 2B activity: 98.7481
[5]; 4.12e-8, pre-incubation 30 min
  Fig. 2B activity: 99.9026
[5]; 4.12e-8, pre-incubation 1 h
  Fig. 2B activity: 99.6216
[5]; 4.12e-8, pre-incubation 2 h
  Fig. 2B activity: 100.024
[5]; 4.12e-8, pre-incubation 4 h
  Fig. 2B activity: 98.7222
[5]; 1.23e-7, pre-incubation 0 min
  Fig. 2B activity: 98.6918
[5]; 1.23e-7, pre-incubation 15 min
  Fig. 2B activity: 98.1432
[5]; 1.23e-7, pre-incubation 30 min
  Fig. 2B activity: 101.367
[5]; 1.23e-7, pre-incubation 1 h
  Fig. 2B activity: 90.8141
[5]; 1.23e-7, pre-incubation 2 h
  Fig. 2B activity: 90.2595
[5]; 1.23e-7, pre-incubation 4 h
  Fig. 2B activity: 86.2099
[5]; 3.7e-7, pre-incubation 0 min
  Fig. 2B activity: 96.5147
[5]; 3.7e-7, pre-incubation 15 min
  Fig. 2B activity: 94.9326
[5]; 3.7e-7, pre-incubation 30 min
  Fig. 2B activity: 97.5329
[5]; 3.7e-7, pre-incubation 1 h
  Fig. 2B activity: 85.2822
[5]; 3.7e-7, pre-incubation 2 h
  Fig. 2B activity: 74.251
[5]; 3.7e-7, pre-incubation 4 h
  Fig. 2B activity: 62.6684
[5]; 1.11e-6, pre-incubation 0 min
  Fig. 2B activity: 94.3157
[5]; 1.11e-6, pre-incubation 15 min
  Fig. 2B activity: 89.9671
[5]; 1.11e-6, pre-incubation 30 min
  Fig. 2B activity: 87.3566
[5]; 1.11e-6, pre-incubation 1 h
  Fig. 2B activity: 64.8977
[5]; 1.11e-6, pre-incubation 2 h
  Fig. 2B activity: 45.9612
[5]; 1.11e-6, pre-incubation 4 h
  Fig. 2B activity: 15.2083
[5]; 3.33e-6, pre-incubation 0 min
  Fig. 2B activity: 92.0439
[5]; 3.33e-6, pre-incubation 15 min
  Fig. 2B activity: 82.8346
[5]; 3.33e-6, pre-incubation 30 min
  Fig. 2B activity: 63.1887
[5]; 3.33e-6, pre-incubation 1 h
  Fig. 2B activity: 32.0154
[5]; 3.33e-6, pre-incubation 2 h
  Fig. 2B activity: 13.0848
[5]; 3.33e-6, pre-incubation 4 h
  Fig. 2B activity: 1.062
[5]; 10 µM, after 2 h
  inhibition of the least sensitive lysyl oxidase: complete inhibition
[5]; 1e-5, pre-incubation 0 min
  Fig. 2B activity: 71.7944
[5]; 1e-5, pre-incubation 15 min
  Fig. 2B activity: 51.1738
[5]; 1e-5, pre-incubation 30 min
  Fig. 2B activity: 24.7148
[5]; 1e-5, pre-incubation 1 h
  Fig. 2B activity: 3.779
[5]; 1e-5, pre-incubation 2 h
  Fig. 2B activity: 2.199
[5]; 1e-5, pre-incubation 4 h
  Fig. 2B activity: 0.1194
[5]; 3e-5, pre-incubation 0 min
  Fig. 2B activity: 46.8993
[5]; 3e-5, pre-incubation 15 min
  Fig. 2B activity: 20.2974
[5]; 3e-5, pre-incubation 30 min
  Fig. 2B activity: 5.217
[5]; 3e-5, pre-incubation 1 h
  Fig. 2B activity: 1.087
[5]; 3e-5, pre-incubation 2 h
  Fig. 2B activity: 2.027
[5]; 3e-5, pre-incubation 4 h
  Fig. 2B activity: -1.502

## NC/C=C(\F)C(F)(F)S(=O)(=O)c1ccccc1 [PXS-6302]
[6]
  inhibition at 30 µM: 2%
[7]
  inhibition at 30 µM: 3%
[8]
  logD: 1
[9]; 3% cream
  tensile strength, treated vs control scars: no significant differences
[9]; 3% cream once daily from re-epithelialisation to 2 months post-injury
  scar photo score by blinded plastic surgeons vs placebo: significantly better
[9]; 3% cream, p = 0.15
  treated scars with lower Young's modulus than matched vehicle treated scar: 5/6
